In the supplement of paper PMC10627819:

What was measured:
Assay in all cases: Bliss interaction score (quartile over a dose matrix) (fitness difference); higher = more antagonism (negative = synergy)
[1] = tested on: S. aureus Newman
Outline: (§1)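 The Bliss score was calculated by subtracting the expected fitness, the product of single-drug values, from the observed fitness. OD595 at entry into stationary phase, over the plate's robust no-drug mean and capped at 1, served as the fitness readout. Single-drug values were inferred from combination data, and scores are summarised by quartiles across technical, biological and donor/recipient replicates.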

[2] = tested on: S. aureus DSM 20231
Outline: as §1

[3] = tested on: B. subtilis 168
Outline: as §1

[4] = tested on: S. pneumoniae D39V
Outline: as §1
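Note: first quartile when negative (synergy) and third quartile when positive (antagonism).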

Structure (SMILES) | Bliss interaction score [1] | Bliss interaction score [2] | Bliss interaction score [3] | Bliss interaction score [4] | Bliss interaction score ([1]; main component drawn) | Bliss interaction score ([2]; main component drawn) | Bliss interaction score ([3]; main component drawn) | Bliss interaction score ([4]; main component drawn)
CO[C@@]12[C@H](COC(N)=O)C3=C(C(=O)C(C)=C(N)C3=O)N1C[C@@H]1N[C@@H]12 [MitomycinC] + CO[C@H]1/C=C/O[C@@]2(C)Oc3c(C)c(O)c4c(O)c(c(/C=N/N5CCN(C)CC5)c(O)c4c3C2=O)NC(=O)/C(C)=C\C=C\[C@H](C)[C@H](O)[C@@H](C)[C@@H](O)[C@@H](C)[C@H](OC(C)=O)[C@@H]1C [Rifampicin] | -0.0175 | -0.0914 | 0.155 | -0.117 | – | – | – | –
CC[C@H]1OC(=O)[C@H](C)[C@@H](O[C@H]2C[C@@](C)(OC)[C@@H](O)[C@H](C)O2)[C@H](C)[C@@H](O[C@@H]2O[C@H](C)C[C@H](N(C)C)[C@H]2O)[C@](C)(O)C[C@@H](C)C(=O)[C@H](C)[C@@H](O)[C@]1(C)O [Erythromycin] + CN[C@@H]1[C@H](O)[C@H](NC)[C@H]2O[C@@]3(O)C(=O)C[C@@H](C)O[C@H]3O[C@@H]2[C@H]1O [Spectinomycin] | -0.172 | -0.0696 | -0.093 | -0.0547 | – | – | – | –
CO[C@@]12[C@H](COC(N)=O)C3=C(C(=O)C(C)=C(N)C3=O)N1C[C@@H]1N[C@@H]12 [MitomycinC] + CC1(C)S[C@@H]2[C@H](NC(=O)Cc3ccccc3)C(=O)N2[C@H]1C(=O)O [PenicillinG] | -0.0455 | -0.0709 | -0.0602 | 0.103 | – | – | – | –
CC[C@H](C)[C@H](N)C1=N[C@H](C(=O)N[C@@H](CC(C)C)C(=O)N[C@H](CCC(=O)O)C(=O)N[C@H](C(=O)N[C@H]2CCCCNC(=O)[C@H](CC(N)=O)NC(=O)[C@@H](CC(=O)O)NC(=O)[C@H](Cc3cnc[nH]3)NC(=O)[C@@H](Cc3ccccc3)NC(=O)[C@H]([C@@H](C)CC)NC(=O)[C@@H](CCCN)NC2=O)[C@@H](C)CC)CS1 [Bacitracin] + O=C(O)[C@H]1/C(=C/CO)O[C@@H]2CC(=O)N21 [Clavulanic] | – | – | – | – | 0.241 | -0.0375 | 0.107 | -0.0867
CO[C@@]12[C@H](COC(N)=O)C3=C(C(=O)C(C)=C(N)C3=O)N1C[C@@H]1N[C@@H]12 [MitomycinC] + Cn1nnc(-c2ccc(-c3ccc(N4C[C@H](CO)OC4=O)cc3F)cn2)n1 [Tedizolid] | -0.0886 | -0.0817 | 0.0705 | -0.124 | – | – | – | –
CC[C@H]1OC(=O)[C@H](C)[C@@H](O[C@H]2C[C@@](C)(OC)[C@@H](O)[C@H](C)O2)[C@H](C)[C@@H](O[C@@H]2O[C@H](C)C[C@H](N(C)C)[C@H]2O)[C@](C)(O)C[C@@H](C)C(=O)[C@H](C)[C@@H](O)[C@]1(C)O [Erythromycin] + COc1ccc(C[C@H](N)C(=O)N[C@H]2[C@@H](O)[C@H](n3cnc4c(N(C)C)ncnc43)O[C@@H]2CO)cc1 [Puromycin] | -0.0378 | -0.0389 | -0.0531 | -0.0449 | – | – | – | –
CO[C@@]12[C@H](COC(N)=O)C3=C(C(=O)C(C)=C(N)C3=O)N1C[C@@H]1N[C@@H]12 [MitomycinC] + COc1c(N2C[C@@H]3CCCN[C@@H]3C2)c(F)cc2c(=O)c(C(=O)O)cn(C3CC3)c12 [Moxifloxacin] | -0.099 | 0.07 | 0.0263 | 0.056 | – | – | – | –
CO[C@@]12[C@H](COC(N)=O)C3=C(C(=O)C(C)=C(N)C3=O)N1C[C@@H]1N[C@@H]12 [MitomycinC] + CCCCCCCCCC(=O)N[C@@H]1[C@H]([C@@H]([C@H](O[C@H]1OC2=C3C=C4C=C2OC5=C(C=C(C=C5)[C@H]([C@H]6C(=O)N[C@@H](C7=C(C(=CC(=C7)O)OC8[C@H]([C@H]([C@@H]([C@H](O8)CO)O)O)O)C9=C(C=CC(=C9)[C@H](C(=O)N6)NC(=O)[C@@H]4NC(=O)[C@@H]1C2=CC(=CC(=C2)OC2=C(C=CC(=C2)[C@H](C(=O)N[C@H](CC2=CC(=C(O3)C=C2)Cl)C(=O)N1)N)O)O)O)C(=O)O)O[C@H]1[C@@H]([C@H]([C@@H]([C@H](O1)CO)O)O)NC(=O)C)Cl)CO)O)O [Teicoplanin] | – | – | – | – | -0.228 | -0.126 | -0.0487 | -0.0795
CO[C@@H]1[C@@H](OC(N)=O)[C@@H](O)[C@H](Oc2ccc3c(O)c(NC(=O)c4ccc(O)c(CC=C(C)C)c4)c(=O)oc3c2C)OC1(C)C [Novobiocin] + CO[C@H]1/C=C/O[C@@]2(C)Oc3c(C)c(O)c4c(O)c(c(/C=N/N5CCN(C)CC5)c(O)c4c3C2=O)NC(=O)/C(C)=C\C=C\[C@H](C)[C@H](O)[C@@H](C)[C@@H](O)[C@@H](C)[C@H](OC(C)=O)[C@@H]1C [Rifampicin] | 0.0819 | 0.0573 | 0.0681 | 0.159 | – | – | – | –
CN[C@H](CC(C)C)C(=O)N[C@H]1C(=O)N[C@@H](CC(N)=O)C(=O)N[C@H]2C(=O)N[C@H]3C(=O)N[C@H](C(=O)N[C@H](C(=O)O)c4cc(O)cc(O)c4-c4cc3ccc4O)[C@H](O[C@H]3C[C@](C)(N)[C@@H](O)[C@H](C)O3)c3ccc(c(Cl)c3)Oc3cc2cc(c3O[C@@H]2O[C@H](CO)[C@@H](O)[C@H](O)[C@H]2O[C@H]2C[C@](C)(NCc3ccc(-c4ccc(Cl)cc4)cc3)[C@@H](O)[C@H](C)O2)Oc2ccc(cc2Cl)[C@H]1O [Oritavancin] + CN1C2=CC=CC=C2N=C3C1=CC=CC3=O [Pyocyanin] | -0.105 | -0.047 | -0.0238 | -0.0208 | – | – | – | –
